Consider 24 compounds from patent US8993527B2, “Methods, compositions, and formulations for preventing or reducing adverse effects in a patient” (Pericor Therapeutics, Inc., priority 2005, dated 2015).

Where a name gives a salt, the structure may show the parent alone.

For assay [1], the target named is T1, NBTI-specific adenosine transport site (UniProt O54698).
T1 sequence (O54698 1-457): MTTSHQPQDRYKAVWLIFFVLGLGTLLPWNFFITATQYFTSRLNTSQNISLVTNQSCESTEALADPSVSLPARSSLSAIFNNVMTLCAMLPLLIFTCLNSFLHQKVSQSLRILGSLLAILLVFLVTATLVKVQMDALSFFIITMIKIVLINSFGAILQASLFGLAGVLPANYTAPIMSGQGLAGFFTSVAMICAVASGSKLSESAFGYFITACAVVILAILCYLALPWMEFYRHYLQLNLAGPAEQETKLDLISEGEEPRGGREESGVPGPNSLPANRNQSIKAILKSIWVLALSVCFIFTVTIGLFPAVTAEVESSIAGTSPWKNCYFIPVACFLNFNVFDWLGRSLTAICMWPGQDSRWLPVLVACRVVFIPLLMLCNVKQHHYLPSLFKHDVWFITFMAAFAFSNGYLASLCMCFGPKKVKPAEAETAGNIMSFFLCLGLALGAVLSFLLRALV
The experiment in a line: [3H]-NBTI binding assay. The settings on record: read-out: ED50 (50% displacement of bound [3H]-NBTI); 0.5 mg neuronal membrane protein, 0.5 nM [3H]-NBTI, 30 minutes. The method, then: Increasing concentrations of the test compounds were incubated for 30 minutes with 0.5 mg neuronal membrane protein together with 0.5 nM [^3 H]-NBTI in a Tris buffer (pH 7.4) at room temperature. The assays were quenched and membranes collected by rapid filtration. Filters were then solubilized and radioactivity determined by scintillation counting.

In assay [2] the test system is longitudinal muscle from the guinea pig ileum. The experiment in a line: Inhibition of stimulated contraction in isolated ileum. The settings on record: electrically stimulated guinea pig ileum muscle. An excerpt:
These are detailed in Table II.

The test system of assay [3] is coronary endothelial cells. The experiment in a line: Inhibition of adenosine utilization in cell culture. It is filed as cell-based. Conditions: 1 μM [3H] adenosine, 15 minutes; for inhibition at 5 µM / inhibition at 50 µM: Endothelial cell. The protocol:
In this assay, endothelial cells were incubated with 5 μM or 50 μM of the test compound together with 1 μM [^3H] adenosine for 15 minutes. Inhibition of adenosine utilization was determined by measuring the concentration of extracellular adenosine by scintillation counting following separation by thin layer chromatography (TLC).

Assay [4] deals with platelet aggregation in human whole blood. The experiment in a line: Inhibition of platelet aggregation in human whole blood. Type of assay: cell-based. Conditions: 10 minutes at 37° C., 10 µM adenosine added, ADP (6-25 μM). The protocol: Whole blood was drawn from healthy donors and collected in 0.1 vol. of sodium citrate to prevent coagulation. Platelet aggregation was measured by the impedance technique using a Whole Blood Aggregometer. The test compounds were incubated in whole blood for 10 minutes at 37° C. and 10 µM adenosine was added 5 minutes before eliciting aggregation. Aggregation was induced by addition of ADP (6-25 μM) at the minimum concentration inducing full aggregation in untreated controls.

In the case of “5-Amino-4-[1-[4-(4-nitrophenyl)]piperazinocarbamoyl]-1-1-β-D-ribofurano sylimidazole [Compound No. 60 (1-508)]”, the EC50 in assay [1] is 17 µM.

For orientation: IC50 means the concentration needed to halve the response being measured. The low end stands for greater potency in that assay, the high end for weaker potency in that assay. For `CN(C)c1ccc(CNC(=O)c2ncn([C@@H]3O[C@H](CO)[C@@H](O)[C@H]3O)c2N)cc1` [41 (1-396), 5-Amino-1-β-D-ribofuranosylimidazole-4-N(4-dimethylaminobenzyl)-carboxamide hydrochloride], the half-inhibitory concentration (IC50) in assay [2] turned out to be 100 µM.

With `Nc1c(C(=O)NC[C@H](O)c2ccc(O)c(O)c2)ncn1[C@@H]1O[C@H](CO)[C@@H](O)[C@H]1O` [42 (1-431), (R)-5-Amino-1-β-D-ribofuranosylimidazole-4-N-[2-hydroxy-2-(3,4-dihydroxyphenyl)ethyl]carboxamide], in assay [2], the IC50 stood at 6 µM. Compared with the last compound, the IC50 is about 17-fold lower.

As usually defined, the inhibition is the share of the control response that was lost under treatment. A higher inhibition goes with a response far below the control. With `Nc1c(C(=O)NCc2ccc([N+](=O)[O-])cc2)ncn1C1OC(CI)C(O)C1O` [46 (1-445), 5-Amino-1-(5-iodo-5-deoxy-β-D-ribofuranosyl)imidazole-4-N-[(4-nitrophenyl)methyl]carboxamide], testing at 5 µM in assay [3] (5 μM) gave an inhibition of 19 ± 4%. This compound had an inhibition at 50 µM in assay [3] (50 μM) of 30 ± 9%. Also, the EC50 in assay [1] stood at 8 µM.

Regarding `CC(NC(=O)c1ncn(C2OC(CO)C(O)C2O)c1N)c1ccc([N+](=O)[O-])cc1` [49 (1-453), (R)-5-Amino-1-β-D-ribofuranosylimidazole 4-N-[1-4-nitrophenyl)ethyl]carboxamide], the inhibition at 5 µM in assay [3] (5 μM) was 30 ± 4%. In addition, the inhibition at 50 µM in assay [3] (50 μM) amounted to 33 ± 8%. The EC50 in assay [1] turned out to be 7 µM.

On to `CC(NC(=O)c1ncn(C2OC(CO)C(O)C2O)c1N)c1ccc([N+](=O)[O-])cc1` [50 (1-459), (S)-5-Amino-1-β-D-ribofuranosylimidazole-4-N-[(4-nitrophenyl)ethyl]carboxamide], for which the EC50 in assay [1] is 28 µM.

As for `Nc1c(C(=O)NCc2cccc(Cl)c2)ncn1[C@H]1O[C@H](CO)[C@@H](O)[C@H]1O` [Compound No. 24 (1-354), 5-Amino-1-α-D-ribofuranosylimidazole-4-N-[(3-chlorophenyl)methyl]carboxamide], the IC50 in assay [2] came out at 400 µM.

`Nc1c(C(=O)NCc2ccc(Cl)cc2Cl)ncn1C1OC(CO)C(O)C1O` [Compound No. 25 (1-360), 5-amino-1-β-D-ribofuranosylimidazole-4-N-[(2,4-dichlorophenyl)methyl]carboxamide] showed a half-inhibitory concentration (IC50) in assay [2] (Cavia porcellus) of 20 µM. The compound also showed an inhibition at 5 µM in assay [3] (5 μM) of 21 ± 1%. In assay [3] (50 μM), the inhibition at 50 µM was 56 ± 2%. Besides, the EC50 in assay [1] came out at 72 µM.

Turning to `NC(=O)c1ncn([C@@H]2O[C@H](CCl)[C@@H](O)[C@H]2O)c1N` [Compound No. 26 (1-332), 5-amino-1-(5-chloro-5-deoxy-β-D-ribofuranosyl)imidazole-4-carboxamide], in assay [2] (Cavia porcellus), it took 200 µM to reach half-maximal inhibition (IC50).

In assay [3] (5 μM), `Nc1c(C(=O)NCc2cccc([N+](=O)[O-])c2)ncn1C1OC(CO)C(O)C1O` [Compound No. 28 (1-348), 5-amino-1-β-D-ribofuranosylimidazole-4-N-[(3-nitrophenyl)methyl]carboxamide] came in with an inhibition at 5 µM of 17 ± 3%. In addition, in assay [3] (50 μM), 50 µM produced 47 ± 2% inhibition. In assay [1], the EC50 is 15 µM. It took 180 µM to reach half-maximal inhibition in assay [4] (Homo sapiens, Platelet, 10 min) (IC50).

In turn, `Cc1ccc(CNC(=O)c2ncn(C3OC(CO)C(O)C3O)c2N)cc1` [Compound No. 30 (1-388), 5-amino-1-β-D-ribofuranosylimidazole-4-N-[(4-methylphenyl)methyl]carboxamide] yielded an IC50 in assay [2] (Cavia porcellus) of 20 µM. In assay [3] (5 μM), this compound gave an inhibition at 5 µM of 21 ± 1%. Also, the inhibition at 50 µM in assay [3] (50 μM) was 49 ± 4%. For the same compound, the EC50 in assay [1] amounted to 225 µM.

In turn, `Nc1c(C(=O)NCc2cccc(Cl)c2)ncn1C1OC(CO)C(O)C1O` [Compound No. 35 (1-355), 5-amino-1-β-D-ribofuranosyl-imidazole-4-N[(3-chlorophenyl)methyl]carboxamide] showed a concentration for half-maximal inhibition (IC50) in assay [2] (Cavia porcellus) of 60 µM. That is a double-digit micromolar value.

On to `COc1ccc(CNC(=O)c2ncn(C3OC(CO)C(O)C3O)c2N)cc1` [Compound No. 39 (1-390), 5-Amino-1-β-D-ribofuranosyl-imidazole-4-N-[p-methoxybenzyl]carboxamide], for which the IC50 in assay [2] (Cavia porcellus) stood at 500 µM. The inhibition at 5 µM in assay [3] (5 μM) stood at 7 ± 4%. The compound also had an inhibition at 50 µM in assay [3] (50 μM) of 29 ± 1%. The EC50 in assay [1] worked out at 600 µM.

In assay [2] (Cavia porcellus), `Nc1c(C(=O)NCc2cccc(I)c2)ncn1C1OC(CO)C(O)C1O` [Compound No. 44 (1-434), 5-Amino 1-β-D-ribofuranosyl-imidazole-4-N-[(3-iodophenyl)methyl]carboxamide] had an IC50 of 20 µM. This lies in the double-digit micromolar range.

Consider `Nc1c(C(=O)NC2CC3CCC2C3)ncn1C1OC(CO)C(O)C1O` [Compound No. 45 (1-438), 5-Amino-1-β-D-ribofuranosylimidazole-4-N-(2-endo-norbornyl)carboxamide], for which, in assay [2] (Cavia porcellus), the concentration for half-maximal inhibition (IC50) came to 100 µM. The EC50 in assay [1] came to 90 µM.

The compound `Nc1c(C(=O)N2CCc3ccccc32)ncn1C1OC(CO)C(O)C1O` [Compound No. 48 (1-452), 5-Amino-1-β-D-ribofuranosyl-imidazole-4-N-indolinylcarboxamide] showed an inhibition at 5 µM in assay [3] (5 μM) of 23 ± 3%. In assay [3] (50 μM), this compound returned an inhibition at 50 µM of 25 ± 2%. For the same compound, in assay [1], the EC50 is 22 µM.

On to `[N-]=[N+]=NCC1OC(n2cnc(C(=O)NCc3ccc(Cl)cc3)c2N)C(O)C1O` (stereo not drawn) [Compound No. 52 (1-467)], for which, in assay [4] (Homo sapiens, Platelet, 10 min), 480 µM corresponded to half-maximal inhibition (IC50).

In the case of `CSC[C@H]1O[C@@H](n2cnc(C(N)=O)c2N)[C@H](O)[C@@H]1O` [Compound No. 54 (1-483), 5-Amino-1-(5-deoxy-5-methylthio-β-D-ribofuranosyl)imidazole-4-carboxamide], the EC50 in assay [1] came out at 28 µM.

As to `Nc1c(C(=O)Nc2ccc([N+](=O)[O-])cc2)ncn1C1OC(CO)C(O)C1O` [Compound No. 58 (1-489), 5-Amino-1-β-D-ribofuranosylimidazole-4-N-(4-nitrophenyl)carboxamide], in assay [1], the EC50 was 80 µM.

Take `Nc1c(C(=O)NCCc2ccc([N+](=O)[O-])cc2)ncn1C1OC(CO)C(O)C1O` [Compound No. 59 (1-506), 5-Amino-1-β-D-ribofuranosyl-imidazole-4-N→2-(4-nitrophenyl)ethyl carboxamide]: the EC50 in assay [1] worked out at 2 µM. The compound also registered an IC50 in assay [4] (Homo sapiens, Platelet, 10 min) of 70 µM.

Take `[N-]=[N+]=NC[C@H]1O[C@@H](n2cnc(C(=O)NCc3ccc([N+](=O)[O-])cc3)c2N)[C@H](O)[C@@H]1O` [Compound No. 71 (1-562)]: the “Inhibition of Adenosine Utilization (%)” value amounted to 10 ± 3% in assay [3] (5 μM) and 31 ± 11% in assay [3] (50 μM). For the same compound, the IC50 in assay [4] is 40 µM.

Take `NC[C@H]1O[C@@H](n2cnc(C(=O)NCc3ccc([N+](=O)[O-])cc3)c2N)[C@H](O)[C@@H]1O` [Compound No. 72 (1-563)]: in assay [4], 300 µM corresponded to half-maximal inhibition (IC50).

Consider `Nc1c(C(=O)NCCCc2ccc([N+](=O)[O-])cc2)ncn1[C@@H]1O[C@H](CO)[C@@H](O)[C@H]1O` [Compound No. 73 (1-566)], for which the “Inhibition of Adenosine Utilization (%)” value in assay [3] (5 μM) stood at 16 ± 0%; in assay [3] (50 μM), 33 ± 9%.

Take `Nc1c(C(=O)NCc2ccc(S(N)(=O)=O)cc2)ncn1[C@@H]1O[C@H](CO)[C@@H](O)[C@H]1O` [Compound No. 75 (1-577), 5-Amino-1-β-D-ribofuranosylimidazole-4-N-[(4-sulfamoylphenyl)methyl]carboxamide]: the “Inhibition of Adenosine Utilization (%)” value stood at 8 ± 0% in assay [3] (5 μM) and 30 ± 3% in assay [3] (50 μM).
